Measurements as given in patent US11000535B2, “Anticancer composition and use thereof” (KAOHSIUNG MEDICAL UNIVERSITY, priority 2015, dated 2021).
Converted amounts (≈) assume the structure as drawn.

Key:
Type in all cases: cell-based, human
[1] = test system: Hep3B cells; experiment: alamarBlue cell viability, Hep3B
Excerpt: (§1) Next, we analyzed the effect of PGG on cell proliferation in different liver cancer cell lines, including Huh7, Hep3B (ATCC-No 8064), HepG2 (ATCC HB-8065), SK-HEP-1 (ATCC HTB-52), Mahlavu and HepG2 (ATCC HB-8065).
(§2) Please refer to FIG. 18, which illustrates the effect of PGG on cell proliferation in different liver cancer cell lines, wherein the numeral 1 denotes Huh7 cells, the numeral 2 denotes Hep3B cells, the numeral 3 denotes SK-HEP-1 cells, the numeral 4 denotes Mahlavu cells, and the numeral 5 denotes HepG2 cells. And cell viability was determined by the alamarBlue® viability assay. IC50 values of PGG in each cell line are shown as follows: Huh7 cells 0.03 mg/mL, Hep3B cells 0.07 mg/mL, SK-HEP-1 cells, Mahlavu cells and HepG2 0.10 mg/mL dose-dependent.
(§3) Human liver cancer cell lines Huh7, Hep G2, Hep 3B, SK-HEP-1, Mahlavu and embryonic kidney cell line HEK-293T all were cultured in Dulbecco's Modified Eagle's Medium (DMEM) (Gibco BRL, Grand Island, N.Y., USA) with 10% heat-inactivated fetal bovine serum (HyClone, Logan, Utah, USA), penicillin (100 U/mL), streptomycin ([…]), nonessential amino acids (0.1 mM/L) and L-glutamine (2 mM/L) in a humidified incubator with 5% CO2.

[2] = test system: SK-HEP-1 cells; experiment: alamarBlue cell viability, SK-HEP-1
Excerpt: as §1, §2, §3

[3] = test system: Huh7 cells; experiment: Colony formation assay; settings: 7 days
Description: For the colony assay, Huh7 cells were seeded. […] Numbers of surviving colonies were analyzed.

[4] = test system: GNMT; experiment: GNMT mRNA and protein expression in Huh7 cells (qPCR, immunoblot)
Description: RNA was prepared by using Tri Reagent (Sigma-Aldrich, St Louis, Mo., USA) and was reverse transcribed into cDNA using a Super Script II Reverse Transcriptase Kit (Invitrogen Inc., Carlsbad, Calif., USA).
PCR was performed on an ABI StepOne Plus System (Applied Biosystems, Foster City, Calif., USA) using the LightCycler® First Start DNA Master SYBR Green I reagent (Roche Diagnostics, Basel, Switzerland). The mRNA level was normalized using the TATA-box binding protein (TBP) mRNA level as the standard.
The following primers were used: GNMT forward, 5′-ACTGGATGACT CTGGACAA-3′ (SEQ ID NO. 3) and reverse, 5′-ACTGAGGATGTGGTCGT-3′(SEQ ID NO. 4); TBP forward, 5′-[…]-3′ (SEQ ID NO. 5) and reverse, 5′-[…]-3′(SEQ ID NO. 6); c-Myc forward, […](SEQ ID NO. 7) and reverse, […](SEQ ID NO. 8).
(§4) Cells or xenograft tumors were harvested with RIPA lysis buffer (50 mM Tris (pH 7.5), 150 mM NaCl, 1% Triton X-100, 0.1% sodium dodecyl sulfate (SDS), 0.5% sodium deoxycholate, supplemented with protease and phosphatase inhibitors (1 mM Phenylmethanesulfonyl Fluoride (PMSF), […], […] Tosyllysine Chloromethyl Ketone (TLCK), […] Tosyl phenylalanyl chloromethyl ketone (TPCK), […] aprotinin, 1 mM sodium fluoride (NaF), 5 mM sodium pyrophosphate (NaPPi) and 10 mM sodium orthovanadate (Na3VO4).
(§5) Protein lysates were quantified and separated on SDS-PAGE gel, and immunoblotting was carried out.
The following antibodies were used: anti-GNMT (14-1, YMAC Bio Tech, Taiwan), anti-caspase-3 (9H19L2, Thermo Scientific) and anti-actin (AC-15, Sigma-Aldrich).

[5] = test system: Huh7 cells; experiment: Apoptosis in Huh7 cells (Annexin V flow cytometry, cleaved caspase 3 immunoblot)
Description: Please refer to FIG. 22, which illustrates sub-G1 of cells in population. And flow cytometry analysis is done after 24 hours of PGG (0.1 mg/mL) treatment as illustrated in FIG. 22.
Please refer to FIG. 23, which illustrates fluorescence intensity in Annexin-V-positive cells among Huh7 cells.
In summary, administration of PGG to Huh7 cells can induce apoptosis.
Cells were harvested and fixed with cold 75% ethanol overnight and stained with propidium iodide (10 ug/mL) and RNase A (1 mg/mL) at 37 □ for 30 min. The cells were then analyzed by an Accuri C6 Flow cytometer (BD Biosciences, San Jose, Calif., USA). Cells were stained for Annexin V—APC Apoptosis Detection Kit according to the manufacturer's protocol (eBioscience, San Diego, Calif., USA).

[6] = test system: c-Myc protein; experiment: c-Myc protein expression by immunoblotting, HL60; settings: HL60 cells, 0.1 mg/mL
Description: Human prostate cancer cell line PC-3 and human promyelocytic leukemia cell line HL-60 were cultured in Gibco BRL company RPMI (Roswell Park Memorial Institute) 1640's medium.
as §4, §5

[7] = test system: c-Myc protein; experiment: c-Myc protein expression by immunoblotting, HepG2; settings: HepG2 cells
Description: (§6) Please refer to FIG. 32A, FIG. 32B, FIG. 33A and FIG. 33B.
as §4, §5

[8] = test system: c-Myc protein; experiment: c-Myc protein expression by immunoblotting, Huh7; settings: Huh7 cells
Description: as §6, §4, §5

[9] = test system: Huh7 cells (shLacZ, shGNMT, shMyc, c-Myc overexpression); experiment: PGG cytotoxicity in Huh7 cells with GNMT or c-Myc knock-out or c-Myc overexpression
Description: As to the mechanism for how to suppress the growth of liver cancer cells by PGG, it was deduced that by virtue of induced GNMT expression by PGG it could interfere liver cancer cells. And it can be expected to have the claimed therapeutic effect of PGG by knocking out GNMT. With transformed Huh7 cells, shRNAs which have stable expressions of GNMT are evaluated.
Please refer to FIG. 40, which illustrates PGG affects the viability in different cell lines, wherein the numeral 1 denotes shLacZ, the numeral 2 denotes shGNMT-1, and the numeral 3 denotes shGNMT-2.
Please refer to FIG. 41, which illustrates the viability in Huh7 cells, wherein the numeral 1 denotes vehicle, the numeral 2 denotes c-Myc, the numeral 3 denotes solvent, and the numeral 4 denotes PGG.
Please refer to FIG. 44, which illustrates the viability in Huh7 cells, wherein the numeral 1 denotes shLacZ, and the numeral 2 denotes shMyc.
Stablized cells comprises Huh7-GFP, Huh7-GNMT, Huh7-shGNMT, Huh7-shLacZ and Huh7-shMyc, which are established via the lentivirus system and cultured in Dulbecco's Modified Eagle's Medium (DMEM) (Gibco BRL, Grand Island, N.Y., USA) with 1 μg/ml puromycin.

- IC50 [1]: 70 µg/mL (≈ 74.4 µM)
- IC50 [2]: 100 µg/mL (≈ 106 µM)
Compound: O=C(OC[C@H]1O[C@@H](OC(=O)c2cc(O)c(O)c(O)c2)[C@H](OC(=O)c2cc(O)c(O)c(O)c2)[C@@H](OC(=O)c2cc(O)c(O)c(O)c2)[C@@H]1OC(=O)c1cc(O)c(O)c(O)c1)c1cc(O)c(O)c(O)c1 [PGG, 1,2,3,4,6-penta-O-galloyl-β-D-glucopyranoside]
- inhibition of colony formation ([3]; 0.05 mg/ml or higher): 95%
- formation of Huh7 cell populations (colonies), dose dependence [3]: dose-dependent manner
- GNMT mRNA expression ([4]; 0.1 mg/ml, Huh7 cells): induced GNMT mRNA expression
- GNMT protein expression ([4]; 0.1 mg/ml, Huh7 cells): induced GNMT protein expression
- time of optimal induced effect on GNMT ([4]; after administration, qPCR and immunoblot): 48 h
- apoptosis (Annexin V staining) [5]: significantly induce apoptosis
- level of cleaved caspase 3 (immunoblot) [5]: increased the level of cleaved caspase 3 in a dose-dependent manner
- c-Myc protein expression [6]: inhibits c-Myc protein expression
- expression of c-Myc protein, dose dependence [7]: suppresses the expression of c-Myc protein in HepG2 cells in a dose-dependent manner
- expression of c-Myc protein, time dependence [7]: suppresses the expression of c-Myc protein in HepG2 cells in a time-dependent manner
- expression of c-Myc protein, dose dependence [8]: suppresses the expression of c-Myc protein in Huh7 cells in a dose-dependent manner
- expression of c-Myc protein, time dependence [8]: suppresses the expression of c-Myc protein in Huh7 cells in a time-dependent manner
- cytotoxicity with ectopically overexpressed c-Myc ([9]; 0.1 mg/mL, FIG. 41): there is still cytotoxicity
- cytotoxicity when GNMT is knocked out (shGNMT-1, shGNMT-2 vs shLacZ) ([9]; FIG. 40): no obvious improvement for the cytotoxicity caused by PGG
- cell viability of Huh7-shMyc cells compared with Huh7-shLacZ cells ([9]; FIG. 44): only slightly decrease cell viability
